Measurements: patent US12161722B2, “Bifunctional heterocyclic compound having BTK degradation function via ubiquitin proteasome pathway, and use thereof” (KOREA RESEARCH INSTITUTE OF CHEMICAL TECHNOLOGY, priority 2021, dated 2024)

Biological target: T1, WT BTK protein (Homo sapiens, UniProt Q06187)
T1 construct: measured for intracellular BTK protein levels by Western blotting; endogenous in cells; host or cells: TMD-8 or RAMOS cells
Assay: BTK protein degradation assay (Western blotting), WT BTK
Format: cell-based
Conditions: concentration range accounting for 50% degradation of WT BTK protein, TMD-8 or RAMOS cells, 24 hours
Description: TMD-8, RAMOS, or 293T BTK MUT (C481S) cells were treated with the synthesized compounds and measured for intracellular BTK protein levels by Western blotting. The protocol of the experiment using TMD-8 cells is as follows.
TMD-8 cells were resuspended in an RPMI1640 medium (Hyclone, SH30027.01, 10% FBS (Hyclone, SV30207.02), 1% penicillin-streptomycin (Welgene, LS 202-02) and the cell suspension was seeded at a density of 1×10^6 cells/mL in an amount of 1 mL per well into 12-well plates.
The 12-well plates were treated as follows. A 10 mM stock was 1/10 diluted in series with DMSO ([…]) to form final concentrations of 10, 1, 0.1, 0.01, 0.001, and 0.0001 mM. The compounds with such concentrations were applied to cells, followed by harvesting the cells 24 hours later. For a negative control, a 1/10 dilution of DMSO in the medium (3 mL DMSO+27 mL medium) was used.
The 1-mL cell culture in each well was passed many times through a pipette and then transferred into a 1.5-mL microtube before centrifugation (500 g, 5 min, 4° C.). The supernatant was discarded and the cell pellet was washed with PBS. After centrifugation (500 g, 5 min, 4° C.) again, the supernatant was discarded and the cell pellet was taken.
A lysis buffer was prepared as follows. RIPA buffer (Biosesang, RC2038-050-00)+0.5 mM PMSF (SIGMA, P7626)+1×Protease/Phosphatase Inhibitor (Cell signaling, 5872S) was added in an amount […] per well and left for 30 minutes on ice (vortexing at 0 and 30 minutes) before sonication (5 cycles of pulse for 10 seconds and rest for 30 seconds, 70% amplification). The supernatant obtained by centrifugation (15000 g, 15 min, 4° C.) was transferred into a new microtube. Cells in each well of 96-well plates were 1/2 diluted with the RIPA buffer and incubated at 37° C. for 30 minutes with […] of a 50:1 mixture of BCA reagents A and B in BCA Protein Assay Kit (iNtRON, 21071). After being cooled for 10 minutes, the 96-well plates were measured for absorbance at 562 nm on the BioTek, SYNERGY H1 microplate reader. Samples were prepared by protein quantification based on the absorbance measurements and then boiled at 70° C. for 10 minutes. The sample buffer used in the case was prepared by mixing a NuPAGE or a Bolt 4× sample buffer (Invitrogen) and its 10× sample reducing agent depending on the gel to be used, and protein dilution was made in a RIPI buffer.
The samples were loaded in the same amount into a NuPAGE or Bolt Bis-tris 4-12% gradient gel and allowed to run therein (200 V, 35 minutes). The separated proteins were transferred onto a […] NC membrane, using Trans-blot Turbo (BIO-RAD) (1.3 A constant, 25V limit, 15 minutes). The membrane was blocked at room temperature for 1 hour with skim milk or Intercept Blocking Buffer (LI-COR, 927-60001):0.1% TBST=1:1. The membrane was incubated with Anti BTK Rabbit (1:1,000 in 5% skim milk/0.2% TBST, size: 77 kDa, Cell signaling Technology) at 4° C. overnight O/N or at room temperature for 2 hours and with Anti GAPDH Rabbit (1:10,000 in 5% BSA/0.2% TBST, size: 36 kDa, GENETEX) and Anti β-actin mouse (1:10,000 in 5% BSA/0.2% TBST, RT, size: 43 kDa, GENETEX) at room temperature for 1 or 3 hours. Then, the membrane was washed three times with 0.5% TBST for 5 minutes each time before incubation with the second antibody Anti-Rabbit IgG (1:5,000 in 5% Skim milk/TBST, CST), IRDye® 800CW Goat anti-Rabbit IgG Secondary Antibody (1:10,000 in 5% skim/TBST, RT 45 min), or IRDye® 680RD Goat anti-Mouse IgG Secondary Antibody (1:10,000 in 5% skim/TBST, RT 45 min) for 45 minutes at room temperature in a rocker. The membrane was washed five times with 0.5% TBST for 5 minutes in each time, followed by detection with LI-COR, Odyssey. In this regard, the detection proceeded, as it was, for house-keeping genes while using SuperSignal West Pico PLUS Chemiluminescent Substrate or SuperSignal West femto Maximum Sensitivity Substrate for BTK detection. […]

T1 sequence (Q06187 whole entry): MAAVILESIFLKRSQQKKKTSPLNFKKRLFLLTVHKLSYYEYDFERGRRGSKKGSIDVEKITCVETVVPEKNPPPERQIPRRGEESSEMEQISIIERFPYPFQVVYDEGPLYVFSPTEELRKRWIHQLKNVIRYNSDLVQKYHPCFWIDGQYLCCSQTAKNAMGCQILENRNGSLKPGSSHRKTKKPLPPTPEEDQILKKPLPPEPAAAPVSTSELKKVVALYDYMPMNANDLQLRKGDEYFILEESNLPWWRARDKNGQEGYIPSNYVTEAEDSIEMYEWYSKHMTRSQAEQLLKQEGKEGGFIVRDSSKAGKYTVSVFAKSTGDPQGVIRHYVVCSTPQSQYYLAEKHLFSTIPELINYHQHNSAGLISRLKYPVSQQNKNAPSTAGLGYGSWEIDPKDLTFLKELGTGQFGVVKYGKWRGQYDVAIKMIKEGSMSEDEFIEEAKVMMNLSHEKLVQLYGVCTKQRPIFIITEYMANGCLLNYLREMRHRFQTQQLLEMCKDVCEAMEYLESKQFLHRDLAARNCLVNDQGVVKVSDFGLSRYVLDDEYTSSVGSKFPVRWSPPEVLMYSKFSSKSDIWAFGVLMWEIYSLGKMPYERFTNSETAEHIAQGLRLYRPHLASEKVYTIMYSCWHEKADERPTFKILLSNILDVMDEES

DC50 [nM]	SMILES
10 to 1000	Cc1cccc(C)c1Nc1nn(C)c2nc(Nc3ccc4c(c3)CN(C(=O)[C@@H]3CCCN3C(=O)CN3CCN(c5ccc6c(c5)C(=O)N(C5CCC(=O)NC5=O)C6=O)CC3)CC4)ncc12 (stereo partly drawn) [Compound 33, 5-(4-(2-((S)-2-(7-((3-((2,6-Dimethylphenyl)amino)-1-methyl-1H-pyrazolo[3,4-d]pyrimidin-6-yl)amino)-1,2,3,4-tetrahydroisoquinoline-2-carbonyl)pyrrolidin-1-yl)-2-oxoethyl)piperazin-1-yl)-2-(2,6-dioxopiperidin-3-yl)isoindoline-1,3-dione]
10 to 1000	Cc1cccc(C)c1Nc1nn(C)c2nc(Nc3ccc4c(c3)CN(C(=O)[C@@H]3CCCN3C(=O)COc3ccc5c(c3)C(=O)N(C3CCC(=O)NC3=O)C5=O)CC4)ncc12 (stereo partly drawn) [Compound 34, 5-(2-((S)-2-(7-((3-((2,6-Dimethylphenyl)amino)-1-methyl-1H-pyrazolo[3,4-d]pyrimidin-6-yl)amino)-1,2,3,4-tetrahydroisoquinoline-2-carbonyl)pyrrolidin-1-yl)-2-oxoethoxy)-2-(2,6-dioxopiperidin-3-yl)isoindoline-1,3-dione]
0.1 to 10	Cc1cccc(C)c1Nc1nn(C)c2nc(Nc3ccc4c(c3)CN(CC3CCN(C(=O)CNc5ccc6c(c5)C(=O)N(C5CCC(=O)NC5=O)C6=O)CC3)CC4)ncc12 (stereo not shown) [Compound 36, 5-((2-(4-((7-((3-((2,6-Dimethylphenyl)amino)-1-methyl-1H-pyrazolo[3,4-d]pyrimidin-6-yl)amino)-3,4-dihydroisoquinolin-2 (1H)-yl)methyl)piperidin-1-yl)-2-oxoethyl)amino)-2-(2,6-dioxopiperidin-3-yl)isoindoline-1,3-dione]
0.1 to 10	Cc1cccc(C)c1Nc1nn(C)c2nc(Nc3ccc4c(c3)CN(CC3CN(C(=O)CN5CCN(c6ccc7c(c6)C(=O)N(C6CCC(=O)NC6=O)C7=O)CC5)C3)CC4)ncc12 (stereo not shown) [Compound 39, 5-(4-(2-(3-((7-((3-((2,6-Dimethylphenyl)amino)-1-methyl-1H-pyrazolo[3,4-d]pyrimidin-6-yl)amino)-3,4-dihydroisoquinolin-2 (1H)-yl)methyl)azetidin-1-yl)-2-oxoethyl)piperazin-1-yl)-2-(2,6-dioxopiperidin-3-yl)isoindoline-1,3-dione]
0.1 to 10	Cc1cccc(C)c1Nc1nn(C)c2nc(Nc3ccc4c(c3)CN(CC3CN(C(=O)C5CCN(c6ccc7c(c6)C(=O)N(C6CCC(=O)NC6=O)C7=O)CC5)C3)CC4)ncc12 (stereo not shown) [Compound 40, 5-(4-(3-((7-((3-((2,6-Dimethylphenyl)amino)-1-methyl-1H-pyrazolo[3,4-d]pyrimidin-6-yl)amino)-3,4-dihydroisoquinolin-2 (1H)-yl)methyl)azetidine-1-carbonyl)piperidin-1-yl)-2-(2,6-dioxopiperidin-3-yl)isoindoline-1,3-dione]
10 to 1000	Cc1cccc(C)c1Nc1nn(C)c2nc(Nc3cccc(CNCC4CCN(c5ccc6c(c5)C(=O)N(C5CCC(=O)NC5=O)C6=O)CC4)c3)ncc12 (stereo not shown) [Compound 41, 5-(4-(((3-((3-((2,6-Dimethylphenyl)amino)-1-methyl-TH-pyrazolo[3,4-d]pyrimidin-6-yl)amino)benzyl)amino)methyl)piperidin-1-yl)-2-(2,6-dioxopiperidin-3-yl)isoindoline-1,3-dione]
0.1 to 10	Cc1cccc(C)c1Nc1nn(C)c2nc(Nc3cccc(CNCC4CCN(C(=O)C5CCN(c6ccc7c(c6)C(=O)N(C6CCC(=O)NC6=O)C7=O)CC5)CC4)c3)ncc12 (stereo not shown) [Compound 42, 5-(4-(4-(((3-((3-((2,6-Dimethylphenyl)amino)-1-methyl-1H-pyrazolo[3,4-d]pyrimidin-6-yl)amino)benzyl)amino)methyl)piperidine-1-carbonyl)piperidin-1-yl)-2-(2,6-dioxopiperidin-3-yl)isoindoline-1,3-dione]
0.1 to 10	Cc1cccc(C)c1Nc1nn(C)c2nc(Nc3ccc4c(c3)CN(C(=O)C3CCN(C(=O)COc5ccc6c(c5)C(=O)N(C5CCC(=O)NC5=O)C6=O)CC3)CC4)ncc12 (stereo not shown) [Compound 43, 5-(2-(4-(7-((3-((2,6-Dimethylphenyl)amino)-1-methyl-1H-pyrazolo[3,4-d]pyrimidin-6-yl)amino)-1,2,3,4-tetrahydroisoquinoline-2-carbonyl)piperidin-1-yl)-2-oxoethoxy)-2-(2,6-dioxopiperidin-3-yl)isoindoline-1,3-dione]
0.1 to 10	Cc1cccc(C)c1Nc1nn(C)c2nc(Nc3ccc4c(c3)CN(C(=O)C3CCN(C(=O)CN5CCN(c6ccc7c(c6)C(=O)N(C6CCC(=O)NC6=O)C7=O)CC5)CC3)CC4)ncc12 (stereo not shown) [Compound 44, 5-(4-(2-(4-(7-((3-((2,6-Dimethylphenyl)amino)-1-methyl-1H-pyrazolo[3,4-d]pyrimidin-6-yl)amino)-1,2,3,4-tetrahydroisoquinoline-2-carbonyl)piperidin-1-yl)-2-oxoethyl)piperazin-1-yl)-2-(2,6-dioxopiperidin-3-yl)isoindoline-1,3-dione]
0.1 to 10	Cc1cccc(C)c1Nc1nn(C)c2nc(Nc3ccc4c(c3)CN(C(=O)C3CCN(C(=O)CNc5ccc6c(c5)C(=O)N(C5CCC(=O)NC5=O)C6=O)CC3)CC4)ncc12 (stereo not shown) [Compound 45, 5-((2-(4-(7-((3-((2,6-Dimethylphenyl)amino)-1-methyl-1H-pyrazolo[3,4-d]pyrimidin-6-yl)amino)-1,2,3,4-tetrahydroisoquinoline-2-carbonyl)piperidin-1-yl)-2-oxoethyl)amino)-2-(2,6-dioxopiperidin-3-yl)isoindoline-1,3-dione]
0.1 to 10	Cc1cccc(C)c1Nc1nn(C)c2nc(Nc3ccc4c(c3)CN(CC3CN(c5ccc6c(c5)C(=O)N(C5CCC(=O)NC5=O)C6=O)C3)CC4)ncc12 (stereo not shown) [Compound 47, 5-(3-((7-((3-((2,6-Dimethylphenyl)amino)-1-methyl-1H-pyrazolo[3,4-d]pyrimidin-6-yl)amino)-3,4-dihydroisoquinolin-2 (1H)-yl)methyl)azetidin-1-yl)-2-(2,6-dioxopiperidin-3-yl)isoindoline-1,3-dione]
0.1 to 10	Cc1cccc(C)c1Nc1nn(C)c2nc(Nc3ccc4c(c3)CN(CC3CCN(C(=O)COc5ccc6nnn(C7CCC(=O)NC7=O)c(=O)c6c5)CC3)CC4)ncc12 (stereo not shown) [Compound 48, 3-(6-(2-(4-((7-((3-((2,6-Dimethylphenyl)amino)-1-methyl-1H-pyrazolo[3,4-d]pyrimidin-6-yl)amino)-3,4-dihydroisoquinolin-2 (1H)-yl)methyl)piperidin-1-yl)-2-oxoethoxy)-4-oxobenzo[d][1,2,3]triazin-3 (4H)-yl)piperidin-2,6-one]
10 to 1000	Cc1cccc(C)c1Nc1nn(C)c2nc(Nc3ccc4c(c3)CN(CC3CN(C(=O)COc5ccc6c(c5)C(=O)N(C5CCC(=O)NC5=O)C6=O)C3)CC4)ncc12 (stereo not shown) [Compound 49, 5-(2-(3-((7-((3-((2,6-Dimethylphenyl)amino)-1-methyl-1H-pyrazolo[3,4-d]pyrimidin-6-yl)amino)-3,4-dihydroisoquinolin-2 (1H)-yl)methyl)azetidin-1-yl)-2-oxoethoxy)-2-(2,6-dioxopiperidin-3-yl)isoindoline-1,3-dione]
